In general, IC50 refers to the concentration that inhibits the measured activity by half. Broadly, the pKb is −log10 of the Kb, conventionally taken in molar units. A low value points to a large Kb. For orientation: Ki means the dissociation constant of the complex between target and ligand, obtained from inhibition or displacement.

The values that follow come from ChEMBL document CHEMBL4699401, “Argininamide-type neuropeptide Y Y1 receptor antagonists: the nature of Nomega-carbamoyl substituents determines Y1R binding mode and affinity” (RSC Med Chem, 2020).

In assay [1] the target is T1, Neuropeptide Y receptor type 1 (Homo sapiens, UniProt P25929).
T1 sequence (P25929 whole entry): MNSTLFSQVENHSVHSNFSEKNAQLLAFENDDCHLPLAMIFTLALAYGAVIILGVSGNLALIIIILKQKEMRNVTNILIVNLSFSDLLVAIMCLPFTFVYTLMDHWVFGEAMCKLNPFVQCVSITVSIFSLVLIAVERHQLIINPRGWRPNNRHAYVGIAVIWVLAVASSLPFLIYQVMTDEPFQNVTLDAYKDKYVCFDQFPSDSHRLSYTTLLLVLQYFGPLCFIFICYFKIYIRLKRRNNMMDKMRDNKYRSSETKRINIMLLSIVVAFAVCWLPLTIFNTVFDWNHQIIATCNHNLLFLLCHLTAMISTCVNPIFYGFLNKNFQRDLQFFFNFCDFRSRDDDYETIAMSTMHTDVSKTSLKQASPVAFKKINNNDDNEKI
The experiment in a line: Antagonist activity at Y1 receptor in human HEL cells assessed as reduction in pNPY-induced calcium mobilization preincubated for 15 mins followed by pNPY stimulation and measured immediately by Fura-2 dye based fluorescence assay. In kind it is functional, cell-based. (In general: Calcium assays in cells follow changes in intracellular calcium, usually with a dye or a luminescent sensor.)

The target of assay [2] is T2, Neuropeptide Y receptor type 1 (Homo sapiens) (UniProt P25929).
T2 sequence (whole entry): T1 sequence (P25929 whole entry)
The conditions noted are these: HEL, filed as antagonist, time 15.0 min.

Assay [3] concerns the target T1, Neuropeptide Y receptor type 1. The experiment in a line: Displacement of [3H]UR-MK299 from Y1 receptor in human SK-N-MC cells by radioligand binding assay. In kind it is cell-based. Background: Displacement assays read how much labelled ligand stays bound in the presence of the test substance.

Turning to `N/C(=N/C(=O)NCCNC(=O)C1CCC1)NCCC[C@@H](NC(=O)C(c1ccccc1)c1ccccc1)C(=O)NCc1ccc(O)cc1`, in assay [1], the IC50 is 0.24 nM. In assay [2], the pKb was 10.5. In assay [3], this compound showed a Ki of 1.1 nM.
In the case of `N/C(=N/C(=O)NCCNC(=O)C(F)F)NCCC[C@@H](NC(=O)C(c1ccccc1)c1ccccc1)C(=O)NCc1ccc(O)cc1`, the IC50 in assay [1] is 0.11 nM. For the same compound, the Ki in assay [3] is 0.0676 nM.
Consider `CC(=O)NCCCNC(=O)/N=C(/N)NCCC[C@@H](NC(=O)C(c1ccccc1)c1ccccc1)C(=O)NCc1ccc(O)cc1`, for which, in assay [3], the affinity corresponds to a Ki of 0.0631 nM.
Still for that read-out and setting: as for `CCC(=O)NCCCNC(=O)/N=C(/N)NCCC[C@@H](NC(=O)C(c1ccccc1)c1ccccc1)C(=O)NCc1ccc(O)cc1`, the figure is 0.0741 nM.
Still for that read-out and setting: as for `CC(=O)NCCNC(=O)/N=C(/N)NCCC[C@@H](NC(=O)C(c1ccccc1)c1ccccc1)C(=O)NCc1ccc(O)cc1`, the figure is 0.0589 nM.
In the case of `N/C(=N/C(=O)NCCNC(=O)C1CC1)NCCC[C@@H](NC(=O)C(c1ccccc1)c1ccccc1)C(=O)NCc1ccc(O)cc1`, the IC50 in assay [1] was 0.24 nM. The compound also yielded a pKb in assay [2] of 10.5. Also, the affinity in assay [3], expressed as Ki, was 1.17 nM.
With `Cc1cc(/C=C/C=C/c2ccc(N(C)C)cc2)cc(C)[n+]1CCNC(=O)/N=C(/N)NCCC[C@@H](NC(=O)C(c1ccccc1)c1ccccc1)C(=O)NCc1ccc(O)cc1`, the affinity in assay [3] corresponds to a Ki of 102 nM.
Regarding `N/C(=N/C(=O)NCCNC(=O)C(c1ccccc1)c1ccccc1)NCCC[C@@H](NC(=O)C(c1ccccc1)c1ccccc1)C(=O)NCc1ccc(O)cc1`, in assay [1], the IC50 was 525 nM. In assay [2], this compound showed a pKb of 7.16. The compound further gave a Ki in assay [3] of 295 nM.
The like results for `N/C(=N/C(=O)NCCNC(=O)c1ccc(F)cc1)NCCC[C@@H](NC(=O)C(c1ccccc1)c1ccccc1)C(=O)NCc1ccc(O)cc1` were, in that order, 16.2 nM, 8.67 and 295 nM.
With `N/C(=N/C(=O)NCCNC(=O)C1CCCC1)NCCC[C@@H](NC(=O)C(c1ccccc1)c1ccccc1)C(=O)NCc1ccc(O)cc1`, in assay [1], the IC50 was 7.59 nM. This compound gave a pKb in assay [2] of 9. This compound showed a Ki in assay [3] of 52.5 nM.
`N/C(=N/C(=O)NCCNC(=O)CF)NCCC[C@@H](NC(=O)C(c1ccccc1)c1ccccc1)C(=O)NCc1ccc(O)cc1`: in assay [1], the IC50 is 0.055 nM. Besides, in assay [3], the Ki was 0.0316 nM.
With `N/C(=N/C(=O)NCCNC(=O)CBr)NCCC[C@@H](NC(=O)C(c1ccccc1)c1ccccc1)C(=O)NCc1ccc(O)cc1`, the IC50 in assay [1] is 0.0617 nM. Moreover, the pKb in assay [2] was 11.1. For the same compound, in assay [3], the Ki is 0.126 nM.
Take `N/C(=N/C(=O)NCCNC(=O)CCCl)NCCC[C@@H](NC(=O)C(c1ccccc1)c1ccccc1)C(=O)NCc1ccc(O)cc1`: in assay [1], the IC50 is 0.589 nM. Also, affinity in assay [3] was put at a Ki of 0.38 nM.
Take `CC(C)(C)C(=O)NCCNC(=O)/N=C(/N)NCCC[C@@H](NC(=O)C(c1ccccc1)c1ccccc1)C(=O)NCc1ccc(O)cc1`: the IC50 in assay [1] was 14.5 nM. The pKb in assay [2] was found to be 8.71. In assay [3], this compound gave a Ki of 45.7 nM.
`N/C(=N/C(=O)NCCNC(=O)Cc1ccccc1)NCCC[C@@H](NC(=O)C(c1ccccc1)c1ccccc1)C(=O)NCc1ccc(O)cc1`: in assay [1], the IC50 was 95.5 nM. The compound further had a pKb in assay [2] of 7.9. This compound also had a Ki in assay [3] of 302 nM.
As for `N/C(=N/C(=O)NCCNC(=O)C(F)(F)F)NCCC[C@@H](NC(=O)C(c1ccccc1)c1ccccc1)C(=O)NCc1ccc(O)cc1`, the IC50 in assay [1] was 0.126 nM. The same compound showed a Ki in assay [3] of 0.0708 nM.
For `CC(C)C(=O)NCCNC(=O)/N=C(/N)NCCC[C@@H](NC(=O)C(c1ccccc1)c1ccccc1)C(=O)NCc1ccc(O)cc1`, the IC50 in assay [1] is 0.0661 nM. The pKb in assay [2] stood at 11.1. Moreover, the Ki in assay [3] is 0.309 nM.
Consider `N/C(=N/C(=O)NCCNC(=O)CO)NCCC[C@@H](NC(=O)C(c1ccccc1)c1ccccc1)C(=O)NCc1ccc(O)cc1`, for which the IC50 in assay [1] is 0.0912 nM. The pKb in assay [2] turned out to be 10.9. In assay [3], this compound gave a Ki of 0.145 nM.
For `N/C(=N/C(=O)NCCNC(=O)CCl)NCCC[C@@H](NC(=O)C(c1ccccc1)c1ccccc1)C(=O)NCc1ccc(O)cc1`, the IC50 in assay [1] is 0.0794 nM. Also, in assay [3], the Ki is 0.0525 nM.
As for `N/C(=N/C(=O)NCCNC(=O)c1ccccc1)NCCC[C@@H](NC(=O)C(c1ccccc1)c1ccccc1)C(=O)NCc1ccc(O)cc1`, the IC50 in assay [1] was 11.5 nM. This compound registered a pKb in assay [2] of 8.82. Further, the Ki in assay [3] was 56.2 nM.
The like results for `N/C(=N/C(=O)NCCNC(=O)C1CCCCC1)NCCC[C@@H](NC(=O)C(c1ccccc1)c1ccccc1)C(=O)NCc1ccc(O)cc1` were, in that order, 30.9 nM, 8.39 and 380 nM.
The like results for `C=CC(=O)NCCNC(=O)/N=C(/N)NCCC[C@@H](NC(=O)C(c1ccccc1)c1ccccc1)C(=O)NCc1ccc(O)cc1` were, in that order, 0.186 nM, 10.6 and 0.112 nM.
